# Measured values published in paper PMC8776094, “Reactive Oxygen Species Production Is Responsible for Antineoplastic Activity of Osmium, Ruthenium, Iridium and Rhodium Half-Sandwich Type Complexes with Bidentate Glycosyl Heterocyclic Ligands in Various Cancer Cell Models” (International Journal of Molecular Sciences, 2022).
# “Also recorded” adds a separate entry of the source.
# Tests used:
# Format in all cases: cell-based
# [1] = system: A2780 ovarian cancer cells; assay: SRB assay, 48 h, cytostasis, A2780; settings: for cytostatic activity on A2780 cells in SRB assay (in words): 48 h treatment; for IC50 / A2780 Max. Inh. (%): SRB assay, 48 h; for A2780 Max. Inh. (%): ND = not detected
# Description: The compounds were tested between 0.001694 and 33.3333 µM, using a 4-hour-long MTT test to assess rapid toxicity and a 48-hour-long SRB assay to assess the long-term effects of the inhibition of proliferation (cytostasis). The MTT assay assesses the activity of mitochondrial complex I and detects rapid, direct toxicity, as well as indicating apoptosis and necrosis. The SRB assay measures the total protein content that is proportional to cell numbers; therefore, the assay can detect changes in cell numbers and can thus be used as a readout for cell proliferation. The SRB assay was performed after 48 h of treatment (with the exception of L428 cells, which were tested for 96 h due to their slower proliferation rate). In this setting, the SRB assay informs us of long-term changes to cell proliferation. We assessed the maximal inhibition within that concentration range, and descriptive statistics were performed. We performed a one-way ANOVA, followed by the Kruskal–Wallis test, regardless of the normal or non-normal distribution of the data. Due to the large number of significance values, the results of the significance calculations are provided in an Excel spreadsheet at https://figshare.com/s/28d14597d5041f08eb08 (accessed on 6 January 2022), among other primary data of the study. Where possible, nonlinear regression was performed on the curves to determine the IC50 values ((inhibitor) vs. response—variable slope (four parameters) method with Graphpad v8.0.1). […] In Table 5, we added the IC50 values that we determined for a set of 4 active ruthenium half-sandwich complexes we identified previously, to be used in subsequent structure-activity relationship (SAR) analyses.
# A2780 cells were cultured in RMPI 1640 medium, supplemented with 10% fetal calf serum, 2 mM glutamine, and 1% penicillin-streptomycin.
# (§1) The assay was performed similarly to the method used in [73]. Cells were seeded in 96-well plates the day before the assay. Cells were treated with the compounds for 48 h, with the exception of L428, where 96 h of treatment was applied. Cells were fixed with 10% trichloroacetic acid (TCA). Fixed cells were washed in distilled water 3 times, followed by staining with SRB (0.4 m/V% dissolved in 1% acetic acid) for 10 min. The stained cells were washed in 1% acetic acid 5 times; the acetic acid was removed, and the cells were left to dry. Protein-bound SRB was released by adding 100 µL 10 mM Tris base. Plates were measured in a plate photometer (Thermo Scientific Multiscan GO spectrophotometer, Waltham, MA, USA) at 540 nm. On each plate, wells were designed to contain untreated cells. In calculations, the readings for these wells were considered as 1 and all readings were expressed relative to these values.
# (§2) Statistical analysis was performed using the 8.0.1 version of Graphpad Prism. Values were tested for normal distribution, using the d’Agostino and Pearson normality test. When necessary, values were log-normalized or were normalized using the Box-Cox normalization method or using a two-step transformation, as indicated in the figure captions. Nonlinear regression was performed using the built-in “[Inhibitor] vs. Response—Variable slope (four parameters), least-square fit” utility of Graphpad, yielding the IC50 and Hill slope values.
# [2] = system: Capan2, a pancreatic adenocarcinoma cell line; assay: SRB assay, 48 h, cytostasis, Capan2; settings: for IC50 / Capan2 Max. Inh. (%): SRB assay; for Capan2 Max. Inh. (%): ND = not detected
# Description: We turned next to assessing whether the cytostatic activity of Os-3, Os-4, Os-5, Os-6 and Ir-6 complexes is specific for ovarian cancer cell lines or if they may be active on other cell lines. To that end, we tested the complexes on another carcinoma cell line (Capan2, a pancreatic adenocarcinoma cell line), on a sarcoma cell line (Saos, an osteosarcoma cell line) and on a lymphoma cell line (L428, a Hodgkin’s lymphoma cell line).
# Capan2 cells were maintained in MEM, 10% fetal bovine serum, 1% penicillin/streptomycin, and 2 mM glutamine.
# as §1, §2
# Here, 1.5 × 10^3 Capan2, 3 × 10^3 Saos cells and 10^4 L428 cells were plated onto 96-well plates. Capan2 and Saos cells were treated with the compounds in the concentrations indicated for 48 h for an SRB assay. L428 cells were treated with the compounds in the concentrations indicated for 96 h, then cells were counted using conventional microscopy and a Burker chamber. Data are represented as average ± SD, from three biological replicates; individual assays were performed in duplicate. Values were normalized for vehicle-treated cells; the absorbance for vehicle-treated cells is equal to 1. A one-way ANOVA, followed by a Kruskal–Wallis test, was performed individually for each compound. The results of the statistical analysis are presented in an Excel spreadsheet at https://figshare.com/s/28d14597d5041f08eb08 (accessed on 6 January 2022). Nonlinear regression was performed on the data.
# [3] = system: A2780 cells; assay: SRB assay with or without 1 mM vitamin E co-treatment; settings: 48 h SRB
# Description: To assess the causative role of oxidative stress in cytostasis induced by the compounds we identified in this study, we co-treated cells with the compounds and with vitamin E, a lipophilic antioxidant.
# as §1
# Figure 10 Assessment of selected Os(II) and Ir(III) complexes (Os-3‒Os-6, Ir-6) for cytostatic activity. Here, 1.5 × 10^3 A2780 cells were plated onto 96-well plates. Cells were treated with the compounds in the concentrations indicated for 48 h for an SRB assay with or without 1 mM vitamin E. Data are represented as average ± SD, from three biological replicates; individual assays were performed in duplicate. Values were normalized for vehicle-treated cells. Absorbance for vehicle-treated cells is equal to 1. Normality was assessed using the d’Agostino and Pearson test. Os-3, Os-4, Os-6, Ir-6 data had normal distribution, while in Os-5, normality was achieved using the Box-Cox normalization method. Statistical difference was assessed using a two-way ANOVA test; all measurement points were compared with each other. *, ** and *** indicate statistically significant differences between vehicle-treated (control) cells and those treated with a compound but not with vitamin E, at p < 0.05 and p < 0.001, respectively. #, ##, and ### indicate statistically significant differences between vehicle-treated (no Vitamin E) and the cells treated with a Vitamin E at p < 0.05, p < 0.01 and p < 0.001, respectively. !, !!, and !!! indicate statistically significant differences between vitamin E and vehicle-treated cells (control) and the cells treated with vitamin E and a compound at p < 0.05, p < 0.01 and p < 0.001, respectively.
smiles,measurement,setting,value
Cc1c(C)c(C)[c-](C)c1C.F[P-](F)(F)(F)(F)F.O=C(OCC1OC(n2cc(-c3ccccn3)nn2)C(OC(=O)c2ccccc2)C(OC(=O)c2ccccc2)C1OC(=O)c1ccccc1)c1ccccc1.[Cl][Ir+2] (mixture of isomers) [Ir-6],cytostatic activity on A2780 cells in SRB assay (in words),[1],pronounced; also recorded: displayed cytostatic activity
same,IC50,[1],1640 nM
same,A2780 Max. Inh. (%),[1],100%
same,cytostatic activity on Capan2 cells (in words),[2],active on all cell lines
same,IC50,[2],4.15 µM
same,Capan2 Max. Inh. (%),[2],100%
same,effect of vitamin E on the cytostatic properties of the complex,[3],potently inhibited by vitamin E
Cc1ccc(C(C)C)cc1.F[P-](F)(F)(F)(F)F.O=C(OCC1OC(c2nnc(-c3ccccn3)o2)C(OC(=O)c2ccccc2)C(OC(=O)c2ccccc2)C1OC(=O)c1ccccc1)c1ccccc1.[Cl][Os+] (mixture of isomers) [Os-3],cytostatic activity on A2780 cells in SRB assay (in words),[1],exerted cytostatic activity
same,IC50,[1],2520 nM
same,A2780 Max. Inh. (%),[1],100%
same,cytostatic activity on Capan2 cells (in words),[2],active on all cell lines
same,IC50,[2],8.8 µM
same,Capan2 Max. Inh. (%),[2],100%
same,effect of vitamin E on the cytostatic properties of the complex,[3],potently inhibited by vitamin E
Cc1ccc(C(C)C)cc1.F[P-](F)(F)(F)(F)F.O=C(OCC1OC(c2nnc(-c3ccccn3)o2)C(OC(=O)c2ccccc2)C(OC(=O)c2ccccc2)C1OC(=O)c1ccccc1)c1ccccc1.[Cl][Os+] (mixture of isomers) [Os-4],cytostatic activity on A2780 cells in SRB assay (in words),[1],exerted cytostatic activity
same,IC50,[1],3230 nM
same,A2780 Max. Inh. (%),[1],100%
same,cytostatic activity on Capan2 cells (in words),[2],active on all cell lines
same,IC50,[2],6.2 µM
same,Capan2 Max. Inh. (%),[2],100%
same,effect of vitamin E on the cytostatic properties of the complex,[3],potently inhibited by vitamin E
Cc1ccc(C(C)C)cc1.F[P-](F)(F)(F)(F)F.O=C(OC1COC(c2nnc(-c3ccccn3)o2)C(OC(=O)c2ccccc2)C1OC(=O)c1ccccc1)c1ccccc1.[Cl][Os+] (mixture of isomers) [Os-5],cytostatic activity on A2780 cells in SRB assay (in words),[1],exerted cytostatic activity
same,IC50,[1],2810 nM
same,A2780 Max. Inh. (%),[1],100%
same,cytostatic activity on Capan2 cells (in words),[2],active on all cell lines
same,IC50,[2],8.89 µM
same,Capan2 Max. Inh. (%),[2],100%
same,effect of vitamin E on the cytostatic properties of the complex,[3],potently inhibited by vitamin E
Cc1ccc(C(C)C)cc1.F[P-](F)(F)(F)(F)F.O=C(OCC1OC(n2cc(-c3ccccn3)nn2)C(OC(=O)c2ccccc2)C(OC(=O)c2ccccc2)C1OC(=O)c1ccccc1)c1ccccc1.[Cl][Os+] (mixture of isomers) [Os-6],cytostatic activity on A2780 cells in SRB assay (in words),[1],exerted cytostatic activity
same,IC50,[1],700 nM
same,A2780 Max. Inh. (%),[1],100%
same,cytostatic activity on Capan2 cells (in words),[2],active on all cell lines
same,IC50,[2],1.71 µM
same,Capan2 Max. Inh. (%),[2],100%
same,effect of vitamin E on the cytostatic properties of the complex,[3],potently inhibited by vitamin E
